Results reported in patent US12691109B2, “Bifunctional aggregation-induced emission luminogen for monitoring and killing of multidrug-resistant bacteria” (The Hong Kong University of Science and Technology, priority 2018, dated 2026).

What was measured:
Format in all cases: cell-based
K. pneumoniae = test: Bacteria staining with TriPE-NT and PI, CLSM; settings: 10 min
Experimental: (§1) FIG. 21B is a graph plotting stained percentages for E. coli, MDR E. coli, K. pneumoniae, MDR K. pneumoniae, S. epidermidis, MDR S. epidermidis, S. aureus, and MDR S. aureus.
(§2) FIG. 21C is a graph plotting percentage of dead bacteria stained by propidium iodine (PI) after the bacteria were incubated with 10 μM of TriPE-NT or PI for 10 min.
(§3) TriPE-NT: Ex=405 nm, Em=500-560 nm; PI: Ex=514, Em=600-700. The scale bar is equal to 5 μm.
(§4) To indicate the status of the bacteria after TriPE-NT treatment, the bacteria was incubated with commercial dead bacteria-staining fluorescent reagent propidium iodide (PI) and TriPE-NT at the same time. Thanks to the AIE characteristics and water solubility of TriPE-NT, there was almost no background fluorescence in the imaging field. E. coli and S. epidermidis, which emitted bright orange (TriPE-NT) or red (PI) fluorescence, are clearly visualized under confocal laser scanning microscope (CLSM) (FIG. 21A-C, 22-23). […] In comparison, relatively low percentage of Gram-negative bacteria were stained by TriPE-NT (e.g., 88.1±9.8% E. coli, 84.3±12.7% MDR E. coli, 47.9±7.7% K. pneumoniae and 35.8±4.9% MDR K. pneumoniae) (FIG. 21B, FIG. 22). […] By contrast, relatively low percentages of E. coli (22.1±12.2% E. coli) were co-stained by both TriPE-NT and PI (FIGS. 21A, C), which is also similar to other Gram-negative bacteria (15.3±3.7%, MDR E. coli, 8.8±3.2%, K. pneumoniae and 6.4±2.6% MDR K. pneumoniae) (FIGS. 21A & C, 22). The reason for this difference possibly is ascribed to the extra membrane of Gram-negative bacteria which is absent in Gram-positive bacteria. These observations also illustrated that both Gram-negative bacteria and Gram-positive bacteria are vulnerable to TriPE-NT treatment, the possible reason is that these bacteria with negatively charged membranes, could anchor, uptake, and aggregate the positively charged probe, which restricts the intramolecular motion of the probe and causes their fluorescence emission.

MDR E. coli = test: Bacteria staining with TriPE-NT and PI, CLSM; settings: 10 min
Experimental: as §1, §2, §3, §4

MDR K. pneumoniae = test: Bacteria staining with TriPE-NT and PI, CLSM; settings: 10 min
Experimental: as §1, §2, §3, §4

E. coli = test: Bacteria staining with TriPE-NT and PI, CLSM; settings: 10 min
Experimental: (§5) TriPE-NT: Ex, 405 nm, Em, 500-560 nm; PI: Ex, 514 nm, Em, 600-700 nm.
as §1, §2, §4

S. epidermidis = test: Bacteria staining with TriPE-NT and PI, CLSM; settings: 10 min
Experimental: as §5, §1, §2, §4

MDR S. aureus = test: Bacteria staining with TriPE-NT and PI, CLSM; settings: 10 min
Experimental: as §1, §2
(§6) TriPE-NT: Ex=405 nm, Em=500-560 nm; PI: Ex=514, Em=600-700.
as §4

MDR S. epidermidis = test: Bacteria staining with TriPE-NT and PI, CLSM; settings: 10 min
Experimental: as §1, §2, §6, §4

S. aureus = test: Bacteria staining with TriPE-NT and PI, CLSM; settings: 10 min
Experimental: as §1, §2, §6, §4

[1] = test system: human skin fibroblast cells (HAFs); test: Cytotoxicity, CCK-8 kit
Experimental: (§7) FIGS. 18A-B are graphs depicting cell viability of human amniotic fluid stem cells (HAFs) and human umbilical vein endothelial cells (HUVECs) after incubation with TriPE-NT at different concentrations of 0, 2, 5, 10 and 20 μM under dark conditions and upon white-light illumination (4 mW cm^−2) for 2 and 30 min.
(§8) Cytotoxicity of the TriPE-NT was tested because a good antibacterial drug should have the ability to kill only bacteria and have no toxicity to human or animal cells. The biocompatibility of TriPE-NT was evaluated by CCK-8 kit.

[2] = test system: human umbilical vein endothelial cells (HUVECs); test: Cytotoxicity, CCK-8 kit
Experimental: as §7, §8

[3] = 2, 5, 10 and 20 RM, absence of white light irradiation
[4] = white light 4 mW cm^−2, 2 and 30 min

Compound: COc1ccc(C(=Cc2ccc(-c3ccc4c5c(cccc35)C(=O)N(CCCCn3c[n+](Cc5ccc(F)cc5F)cn3)C4=O)cc2)c2ccc(OC)cc2)cc1 [TriPE-NT]
- percentage of K. pneumoniae co-stained by TriPE-NT and PI (dead bacteria) (K. pneumoniae; 10 μM TriPE-NT and PI): 8.8±3.2%
- percentage of K. pneumoniae stained by TriPE-NT (K. pneumoniae; 10 μM): 47.9±7.7%
- percentage of MDR E. coli co-stained by TriPE-NT and PI (dead bacteria) (MDR E. coli; 10 μM TriPE-NT and PI): 15.3±3.7%
- percentage of MDR E. coli stained by TriPE-NT (MDR E. coli; 10 μM): 84.3±12.7%
- percentage of MDR K. pneumoniae co-stained by TriPE-NT and PI (dead bacteria) (MDR K. pneumoniae; 10 μM TriPE-NT and PI): 6.4±2.6%
- percentage of MDR K. pneumoniae stained by TriPE-NT (MDR K. pneumoniae; 10 μM): 35.8±4.9%
- percentage of E. coli co-stained by TriPE-NT and PI (dead bacteria) (E. coli; 10 μM TriPE-NT and PI): 22.1±12.2%
- percentage of E. coli stained by TriPE-NT (E. coli; 10 μM): 88.1±9.8%
- percentage of S. epidermidis co-stained by TriPE-NT and PI (dead bacteria) (S. epidermidis; 10 μM TriPE-NT and PI): 80.9±15.8%
- percentage of S. epidermidis stained by TriPE-NT (S. epidermidis; 10 μM): 96.2±5.6%
- percentage of MDR S. aureus co-stained by TriPE-NT and PI (dead bacteria) (MDR S. aureus; 10 μM TriPE-NT and PI): 57.4±1.3%
- percentage of MDR S. aureus stained by TriPE-NT (MDR S. aureus; 10 μM): 80.9±1.7%
- percentage of MDR S. epidermidis co-stained by TriPE-NT and PI (dead bacteria) (MDR S. epidermidis; 10 μM TriPE-NT and PI): 74.8±11.4%
- percentage of MDR S. epidermidis stained by TriPE-NT (MDR S. epidermidis; 10 μM): 92.9±6.6%
- percentage of S. aureus co-stained by TriPE-NT and PI (dead bacteria) (S. aureus; 10 μM TriPE-NT and PI): 67.3±12.2%
- percentage of S. aureus stained by TriPE-NT (S. aureus; 10 μM): 86.1±1.9%
- cell viability of HAFs [1, 3]: not significantly changed
- cytotoxicity to HAFs with increase of irradiation time [1, 4]: no obvious cytotoxicity
- cell viability of HUVECs [2, 3]: not significantly changed
- cytotoxicity to HUVECs with increase of irradiation time [2, 4]: no obvious cytotoxicity
